Measured values published in PubChem BioAssay AID2060905 (Molecular Pharmacology Branch, DTP, NCI, 2025).
pIC50: −log10 of the molar value.

Tested on: 282377-053-R-J1-PDC complex spheroid viability
Assay: Anticancer human tumor 282377-053-R-J1-PDC patient-derived colon adenocarcinoma cell line growth inhibition [RAS]
Details: for pIC50: curve of first compound; for viability, T/C: stronger effect = lower value
Description: RAS pathway inhibitors in Combinations in Complex Spheroids
A high-throughput screen of multi-cell type tumor spheroids was designed to identify active combinations of RAS pathway inhibitors and targeted small molecules. Complex spheroids include a stromal component modeled by human endothelial cells (HUVEC) and fibroblasts modeled by human mesenchymal stem cells (MSCs). The concentration ranges selected for each drug and investigational agent were based upon clinically achievable concentrations if the clinical Cmax of the agent was known.
Compounds. The drugs and investigational agents: abemaciclib (NSC768073), cobimetinib (NSC768068), divarasib (GDC6063, NSC841802), docetaxel (NSC628503), GDC-1971 (RLY-1971, NSC841576), gemcitabine (NSC613327), inavolisib (NSC800729), ipatasertib (NSC767898), KB-0742 (NSC834161), MRTX-1133 (NSC836407), osimertinib (NSC779217), RMC-4630 (NSC839698), RMC-6236 (NSC851965), RMC-6291 (NSC852671), Ro-3306 (NSC812927), sapanisertib (NSC764658), SN-38 (NSC673596), staurosporine (NSC755774), SY5609 (NSC837396), and tovorafenib (DAY101, NSC766906), were obtained from the National Cancer Institute (NCI) Developmental Therapeutics Program Chemical Repository. The FDA-approved anticancer drug set is available from the NCI Developmental Therapeutics Program. […] The stock solutions were prepared in dimethyl sulfoxide (DMSO, Sigma-Aldrich, St. Louis, MO, cat. D2650) at 800-fold the tested concentration and stored at -70 degrees C prior to their use. All drugs and investigational agents were tested over a range starting from a high concentration at or near the clinical Cmax and decreasing in half-log increments. If the clinical Cmax for an agent had not been determined, the highest concentration tested was 10 microM.
Cell Culture. All cells were maintained in an incubator at 37 degrees C and 5% CO2 with 95% humidity. The PDC lines were cultured according to standard operating procedures established by the NCI PDMR. All PDCs were thawed and cultured in Matrigel-coated flasks prepared with a working solution of 1X Ham's F-12 nutrient mix, without supplementation (Invitrogen, Waltham, MA, cat. 11765054), 100 U/mL penicillin-streptomycin (Invitrogen, cat. 15140122), and 2.5% Matrigel (Corning Inc., Corning, NY, cat. 354248) for the first three passages. The 362531-283-R-J2-PDC and 782815-120-R-J1-PDC lines were cultured in 6C/Colon 1B media, which includes advanced DMEM/F-12 (Thermo Fisher Scientific, cat. 12634028), 10 mM HEPES (Thermo Fisher Scientific, cat. 15630080), 1X GlutaMAX supplement (Thermo Fisher Scientific, cat. 35050061), 0.1 mg/mL primocin (InvivoGen, San Diego, CA, cat. ant-pm-2), 10% defined fetal bovine serum, heat inactivated (HyClone Laboratories Inc., Logan, UT, cat. SH30070.03HI), 50% L-WRN conditioned media (ATCC, cat. CRL-3276), 1.25 mM N-Acetyl-L-cysteine (Sigma-Aldrich, cat. A9165), 10 mM nicotinamide (Sigma-Aldrich, cat. N0636), 1X B-27 supplement (Thermo Fisher Scientific, cat. 17504044), 1X N-2 supplement (Thermo Fisher Scientific, cat. 17502048), 50 ng/mL human EGF (Thermo Fisher Scientific, cat. PHG0311), and 10 microM Y-27632 dihydrochloride (Tocris Bioscience, cat. 1254). The K12877-001-R-J1-PDC line was cultured in 6I media, which includes all 6C/Colon 1B media plus 10 ng/mL human FGF-10 (PeproTech, cat. 100-26), 1 ng/mL human FGF-2 (PeproTech, cat. 100-18B), 1 µM prostaglandin E2 (Tocris Bioscience, cat. 2296), […] hydrocortisone (Sigma-Aldrich, cat. H4001), and […] bovine insulin (Sigma-Aldrich, cat. I6634). The K86415-001-R-J1-PDC line was cultured in 6D media, which includes all 6C/Colon 1B media components minus the L-WRN conditioned media. The 485176-168-R4-J1-PDC was cultured in PANC media, which includes all 6C/Colon 1B media plus 100 ng/mL human FGF-10 (PeproTech, cat. 100-26), 500 nM SB-431542 (Selleckchem, cat. S1067), and 10 nM gastrin (Tocris Bioscience, cat. 3006). […]
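Note: spheroids exposed to agents for seven days before readout.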
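Throughout, for viability, T/C: luminescence viability as percent of DMSO vehicle control wells.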

Nc1ccn(C2OC(CO)C(O)C2(F)F)c(=O)n1 (centres undefined) + C=CC(=O)N1CCN(c2nc(OCC3CCCN3C)nc3c(F)c(-c4nc(N)cc(C)c4C(F)(F)F)c(Cl)cc23)C(C)C1
pIC50 (second compound 0.00316 µM): 6.58 | pIC50 (second compound 0.01 µM): 6.59 | pIC50 (second compound 0.0316 µM): 6.67 | pIC50 (second compound 0.1 µM): 6.56 | pIC50 (second compound 0.316 µM): 6.61 | pIC50 (second compound 1 µM): 6.24 | viability, T/C (second compound 0.00316 µM, first compound 0.00316 µM): 108% | viability, T/C (second compound 0.00316 µM, first compound 0.01 µM): 98.9% | viability, T/C (second compound 0.00316 µM, first compound 0.0316 µM): 99% | viability, T/C (second compound 0.00316 µM, first compound 0.1 µM): 80.1% | viability, T/C (second compound 0.00316 µM, first compound 0.316 µM): 44.1% | viability, T/C (second compound 0.00316 µM, first compound 1 µM): 31.6% | viability, T/C (second compound 0.01 µM, first compound 0.00316 µM): 98.3% | viability, T/C (second compound 0.01 µM, first compound 0.01 µM): 111% | viability, T/C (second compound 0.01 µM, first compound 0.0316 µM): 102% | viability, T/C (second compound 0.01 µM, first compound 0.1 µM): 72.4% | viability, T/C (second compound 0.01 µM, first compound 0.316 µM): 47.8% | viability, T/C (second compound 0.01 µM, first compound 1 µM): 35% | viability, T/C (second compound 0.0316 µM, first compound 0.00316 µM): 117% | viability, T/C (second compound 0.0316 µM, first compound 0.01 µM): 110% | viability, T/C (second compound 0.0316 µM, first compound 0.0316 µM): 118% | viability, T/C (second compound 0.0316 µM, first compound 0.1 µM): 69.2% | viability, T/C (second compound 0.0316 µM, first compound 0.316 µM): 46.9% | viability, T/C (second compound 0.0316 µM, first compound 1 µM): 33.8% | viability, T/C (second compound 0.1 µM, first compound 0.00316 µM): 90.1% | viability, T/C (second compound 0.1 µM, first compound 0.01 µM): 101% | viability, T/C (second compound 0.1 µM, first compound 0.0316 µM): 101% | viability, T/C (second compound 0.1 µM, first compound 0.1 µM): 79.8% | viability, T/C (second compound 0.1 µM, first compound 0.316 µM): 47.2% | viability, T/C (second compound 0.1 µM, first compound 1 µM): 34.4% | viability, T/C (second compound 0.316 µM, first compound 0.00316 µM): 117% | viability, T/C (second compound 0.316 µM, first compound 0.01 µM): 125% | viability, T/C (second compound 0.316 µM, first compound 0.0316 µM): 107% | viability, T/C (second compound 0.316 µM, first compound 0.1 µM): 65.6% | viability, T/C (second compound 0.316 µM, first compound 0.316 µM): 52.2% | viability, T/C (second compound 0.316 µM, first compound 1 µM): 32.9% | viability, T/C (second compound 1 µM, first compound 0.00316 µM): 101% | viability, T/C (second compound 1 µM, first compound 0.01 µM): 101% | viability, T/C (second compound 1 µM, first compound 0.0316 µM): 99% | viability, T/C (second compound 1 µM, first compound 0.1 µM): 88% | viability, T/C (second compound 1 µM, first compound 0.316 µM): 65.3% | viability, T/C (second compound 1 µM, first compound 1 µM): 36.5%

CC(C)NCC(C(=O)N1CCN(c2ncnc3c2C(C)CC3O)CC1)c1ccc(Cl)cc1 (centres undefined) + CCn1c(-c2cccnc2C(C)OC)c2c3cc(ccc31)N1CCOC(CC(NC(=O)C(C(C)C)N(C)C(=O)C3(F)CCN(C(=O)C#CC(C)(C)N(C)C)CC3)C(=O)N3CCCC(N3)C(=O)OCC(C)(C)C2)C1
pIC50 (second compound 0.000949 µM): < 5.00 | pIC50 (second compound 0.003 µM): < 5.00 | pIC50 (second compound 0.00949 µM): < 5.00 | pIC50 (second compound 0.03 µM): < 5.00 | pIC50 (second compound 0.0949 µM): < 5.00 | pIC50 (second compound 0.3 µM): < 5.00 | viability, T/C (second compound 0.000949 µM, first compound 0.0316 µM): 96.4% | viability, T/C (second compound 0.000949 µM, first compound 0.1 µM): 99.7% | viability, T/C (second compound 0.000949 µM, first compound 0.316 µM): 109% | viability, T/C (second compound 0.000949 µM, first compound 1 µM): 89.7% | viability, T/C (second compound 0.000949 µM, first compound 3.16 µM): 78.3% | viability, T/C (second compound 0.000949 µM, first compound 10 µM): 70.6% | viability, T/C (second compound 0.003 µM, first compound 0.0316 µM): 104% | viability, T/C (second compound 0.003 µM, first compound 0.1 µM): 96.5% | viability, T/C (second compound 0.003 µM, first compound 0.316 µM): 91.9% | viability, T/C (second compound 0.003 µM, first compound 1 µM): 82.2% | viability, T/C (second compound 0.003 µM, first compound 3.16 µM): 79.5% | viability, T/C (second compound 0.003 µM, first compound 10 µM): 78.2% | viability, T/C (second compound 0.00949 µM, first compound 0.0316 µM): 114% | viability, T/C (second compound 0.00949 µM, first compound 0.1 µM): 93% | viability, T/C (second compound 0.00949 µM, first compound 0.316 µM): 90% | viability, T/C (second compound 0.00949 µM, first compound 1 µM): 88.8% | viability, T/C (second compound 0.00949 µM, first compound 3.16 µM): 82.5% | viability, T/C (second compound 0.00949 µM, first compound 10 µM): 74.5% | viability, T/C (second compound 0.03 µM, first compound 0.0316 µM): 104% | viability, T/C (second compound 0.03 µM, first compound 0.1 µM): 111% | viability, T/C (second compound 0.03 µM, first compound 0.316 µM): 81.3% | viability, T/C (second compound 0.03 µM, first compound 1 µM): 103% | viability, T/C (second compound 0.03 µM, first compound 3.16 µM): 69.8% | viability, T/C (second compound 0.03 µM, first compound 10 µM): 88.1% | viability, T/C (second compound 0.0949 µM, first compound 0.0316 µM): 88.4% | viability, T/C (second compound 0.0949 µM, first compound 0.1 µM): 94.4% | viability, T/C (second compound 0.0949 µM, first compound 0.316 µM): 127% | viability, T/C (second compound 0.0949 µM, first compound 1 µM): 90% | viability, T/C (second compound 0.0949 µM, first compound 3.16 µM): 72.5% | viability, T/C (second compound 0.0949 µM, first compound 10 µM): 67.8% | viability, T/C (second compound 0.3 µM, first compound 0.0316 µM): 105% | viability, T/C (second compound 0.3 µM, first compound 0.1 µM): 112% | viability, T/C (second compound 0.3 µM, first compound 0.316 µM): 94.8% | viability, T/C (second compound 0.3 µM, first compound 1 µM): 92.7% | viability, T/C (second compound 0.3 µM, first compound 3.16 µM): 77.3% | viability, T/C (second compound 0.3 µM, first compound 10 µM): 80.7%
